Source: paper PMC4938538, “Inhibition of Pig Phosphoenolpyruvate Carboxykinase Isoenzymes by 3-Mercaptopicolinic Acid and Novel Inhibitors” (PLoS ONE, 2016)
Numbering of substitutions follows the chain as printed.

Assays:
[1] = target: T1, PEPCK-C 139L (Sus scrofa, UniProt A0A4X1UM84, M139L); assay: Isothermal titration calorimetry (ITC); format: binding, pig; settings: 139Leu; for Kd / ΔH: 25°C
T1 construct: His-tag (cleaved yes); made in house; host or cells: Escherichia coli BL21 (DE3)
T1 sequence (A0A4X1UM84 1-622 M139L): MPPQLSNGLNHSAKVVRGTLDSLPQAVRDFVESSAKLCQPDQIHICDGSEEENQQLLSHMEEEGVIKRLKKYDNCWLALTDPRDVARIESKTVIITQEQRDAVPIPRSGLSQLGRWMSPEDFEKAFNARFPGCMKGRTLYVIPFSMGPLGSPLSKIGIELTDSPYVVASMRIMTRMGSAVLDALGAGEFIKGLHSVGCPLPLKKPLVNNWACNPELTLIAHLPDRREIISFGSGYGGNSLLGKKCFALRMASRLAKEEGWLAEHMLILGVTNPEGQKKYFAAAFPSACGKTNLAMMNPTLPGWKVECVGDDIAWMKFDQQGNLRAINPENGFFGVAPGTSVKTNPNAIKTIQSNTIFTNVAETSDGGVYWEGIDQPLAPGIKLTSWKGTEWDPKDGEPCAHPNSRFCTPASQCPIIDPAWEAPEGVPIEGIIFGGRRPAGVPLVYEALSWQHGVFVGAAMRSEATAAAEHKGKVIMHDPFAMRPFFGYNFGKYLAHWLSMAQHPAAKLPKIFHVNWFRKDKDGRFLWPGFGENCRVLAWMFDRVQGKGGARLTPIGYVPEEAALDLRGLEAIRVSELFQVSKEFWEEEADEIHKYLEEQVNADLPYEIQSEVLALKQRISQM
Procedure: (§1) The reference cell was filled with distilled water. […] 2 mM GTP was also added to the enzyme solution in the corresponding experiments. […] In all the assays, a total of 19 injections of 2 μL were added sequentially to the sample cell with a 150 s spacing to ensure that the thermal power signal returned to the baseline prior to the next injection. The binding isotherms (normalized heat effect as a function of the molar ratio) were analyzed with Origin 7 (OriginLab) using a single class of binding sites model. Calorimetric assays were perform in duplicates at least.

[2] = target: T2, PEPCK-C 139M (Sus scrofa, UniProt A0A4X1UM84); assay: Isothermal titration calorimetry (ITC); format: binding, pig; settings: 139Met; for Kd / ΔH: 25°C
T2 construct: His-tag (cleaved yes); made in house; host or cells: Escherichia coli BL21 (DE3)
T2 sequence (A0A4X1UM84 1-622): T1 sequence (A0A4X1UM84 1-622 M139L) with L139M
Procedure: as §1

[3] = tested on: pyruvate kinase and lactate dehydrogenase; assay: Inhibition of auxiliary enzymes; format: biochemical; settings: 25–200 μM compound; data not shown
Text: Reactions were initiated by addition of 0.5 units of each pyruvate kinase and lactate dehydrogenase.

[4] = tested on: PEPCK-C 139Met; assay: Thermal-shift screening of chemical library (ANS fluorescence); format: binding, pig; settings: 25 μM compound, 4 μM PEPCK-C
Procedure: PEPCK-C effectors were identified from a chemical library using a screening procedure based on a thermal-shift assay. Potential protein effector compounds were dispensed into 96-well microplates. Each well contained 4 μM PEPCK-C in a 20 mM HEPES buffer pH 7.4, plus 1 mM TCEP, 100 μM ANS, 10% DMSO and either 1 or 5 chemical library compounds, each at a 25 μM concentration. […] 50 μL of mineral oil were added to each well to prevent evaporation. In a first screening round, 5 different compounds were present in each well. The binding of effectors to PEPCK-C was assessed by monitoring the thermal denaturation of the enzyme and identifying compounds inducing a stabilizing effect (increase in the unfolding temperature, Tm, compared to the free enzyme) in a FluoDia T70 High Temperature Fluorescence Microplate Reader (Photon Technology International, UK). To obtain Tm values, unfolding curves were fitted to Boltzmann function (Eq 1) using OriginPro 9.1 software. y(T) = A1−A2/1+exp(T−Tm/S)+A2 (1) where A1 and A2 are the asymptotic values of the signal in the pre- and post-transition region of the unfolding curve, respectively, and S is a parameter associated with the slope of the unfolding curve at the Tm and related to the unfolding enthalpy of the enzyme. […] In a second round, the compounds present in the positive wells were individually analyzed to identify the binders.

[5] = stated for both isoenzymes, with and without GTP

O=C(O)c1ncccc1S [3-MP, 3-mercaptopicolinic acid]
Kd ([1]; +GTP (2 mM)): 39 µM | ΔH ([1]; +GTP (2 mM)): -58.2 kcal/mol | Kd ([1]; -GTP): 12 µM | ΔH ([1]; -GTP): -32.6 kcal/mol | Kd ([2]; +GTP (2 mM)): 19 µM | ΔH ([2]; +GTP (2 mM)): -31.8 kcal/mol | Kd ([2]; -GTP): 7.2 µM | ΔH ([2]; -GTP): -20.4 kcal/mol

Cn1nc(-c2ccc(C=NNC(=O)c3ccc(Cl)cc3Cl)s2)cc1C(F)(F)F [compound 2, N'1-({5-[1-methyl-5-(trifluoromethyl)-1H-pyrazol-3-yl]-2-thienyl}methylidene)-2,4-dichlorobenzene-1-carbohydrazide]
Inhibition of / interaction with auxiliary enzymes [3]: slight interaction | Increase in Tm compared with controls [4]: around 8 °C | Kd ([1]; +GTP (2 mM)): 14 µM | ΔH ([1]; +GTP (2 mM)): -13.9 kcal/mol | Kd ([1]; -GTP): 9.8 µM | ΔH ([1]; -GTP): -16.7 kcal/mol | n (stoichiometry, number of binding sites), all experiments [1, 5]: ~1 | Kd ([2]; +GTP (2 mM)): 19 µM | ΔH ([2]; +GTP (2 mM)): -26.6 kcal/mol | Kd ([2]; -GTP): 4.4 µM | ΔH ([2]; -GTP): -20.5 kcal/mol | n (stoichiometry, number of binding sites), all experiments [2, 5]: ~1

CC(=NNC(=S)NC1CCCCC1)c1sc(-c2cccs2)nc1C [compound 1, N1-cyclohexyl-2-{1-[4-methyl-2-(2-thienyl)-1,3-thiazol-5-yl]ethylidene}hydrazine-1-carbothiamide]
Inhibition of / interaction with auxiliary enzymes [3]: slight inhibition | Increase in Tm compared with controls [4]: around 8 °C
